US12569508B2, “Antimicrobial compositions and methods of use” (priority 2020, dated 2026)

Columns and labels:
[1] = test system: PAO1 biofilm; assay: In vitro MBEC antibiofilm assay; format: cell-based, P. aeruginosa; conditions: 5 μg/mL and 15 μg/mL TOB; 24 h
Experimental: The pegs on lid of the MBEC Assay® were submerged into the bacterial suspension, with column 12 containing sterile LB broth as a negative control. The plate was incubated at 37° C. on a rotating gyrator for 24 h to form biofilm on the pegs. After 24 h, the peg lid was removed and transferred into another 96-well microtiter plate containing sterile water for 30 seconds before being transferred into a treatment plate. The peg lid in the treatment plate was incubated for 24 h at 37° C. on the rotating gyrator. In the first study, the effect of concentration variation of TOB in MO-LCNPs was determined. […] The respective controls included unloaded formulations MO-LCNP and […] at equivalent concentrations and 0.9% NaCl. […] In the second study, the difference in effect of MO- and […] compared to liposomes containing TOB was determined. […] The final concentration of MO and PHY was 0.25 mg/mL. Liposomes were prepared as described above. In the third study, TOB, AMI and GEN as unformulated solutions and loaded in MO-LCNPs were compared as treatments against PAO1 biofilms in the MBEC Assay®. The concentration of each antibiotic was 6 μg/mL. […] In all four different studies, the treatments were incubated with the PAO1 biofilm grown on the MBEC Assay® on a rotating plate at 37° C. After 24 h incubation, the peg lid was transferred to a fresh plate containing sterilized water to inhibit treatments. […]

[2] = in vitro; format: in vitro ADME; conditions: human
Experimental: The barrier integrity of the CFBE41o− cell line cultured on the Transwell® supports was determined by both TEER (Srinivasan B et aL, 2015, Journal of Laboratory Automation, 20(2): 107-126) and sodium fluorescein transport (Molenda N et al., 2014, PLOS ONE, 9(6): p. e100621). Due to the variation in TEER measurements, sodium fluorescein transport provided a direct measurement of the tight junctions. On day 7 (4 days after cells are transferred to ALI), cells were incubated basolaterally with 1.7 mL KRB buffer and apically with 520 μL of 10 μg/mL sodium fluorescein (in KRB) with or without 16 mM ethylenediaminetetraacetic acid (EDTA). EDTA disrupts the tight junctions of a cell barrier. At 30-minute intervals, 20 μL samples were taken from the basolateral compartment and replaced with fresh KRB. […] The samples were then measured and compared to a standard curve via fluorescent spectroscopy (Tecan® plate reader, Tecan Deutschland GmbH, Germany) at excitation and emission wavelengths of […], respectively. […]
After TOB treatments were nebulised, at 5, 15, 30, 60, 120, 240 and 1440 minutes, 100 μL sample was taken from the basolateral compartment and replaced with fresh MEM media. The sample was then filtered through 4 mm Millex® syringe filters before LC-MS/MS analysis, as described above, to quantify the transport of TOB.

[3] = test system: 6 mm full-thickness wound infected with P. aeruginosa; assay: Chronic full-thickness wound infection model: macroscopic and microscopic wound healing; format: in vivo, Balb/c mice
Experimental: Following the same procedure as above, male and female mice were wounded with a 6 mm circular full-thickness wound under anaesthesia and pain relief. […] Treatments were repeated every 24 h for three days and monitored for the bacterial burden and digital photographs. On day six, mice were sacrificed as described above. Digital photographs of the wounds that were taken daily (day zero to six) were used for the macroscopic assessment of healing using ImageJ software. The images were calibrated to a ruler to measure the wounds length, gape and surface area, as previously described (Abbott C A et al., 2013, supra). The microscopic analysis was completed with histology assessments. Following overnight fixation in 4% (v/v) formaldehyde, collected wound halves were routinely processed into paraffin, and 4 μm thick sections were cut using a semi-automated rotary microtome (HistoCore MultiCut, Leica Biosystems, Melbourne, Australia). The sections were stained for haematoxylin and eosin using established protocols (Kopecki, Z., et al., 2009, supra). Following, all sections were imaged via […] slide scanner, Hamamatsu Photonics, Japan) and analysed using NDP.view2 Viewing software (Hamamatsu Photonics, Japan) to microscopically assess the healing via measurement of wound length, gape and percentage of wound re-epithelisation following previously used protocols ([…]., et al., 2021, supra).

## NC[C@H]1O[C@H](O[C@H]2[C@H](O)[C@@H](O[C@H]3O[C@H](CO)[C@@H](O)[C@H](N)[C@H]3O)[C@H](N)C[C@@H]2N)[C@H](N)C[C@@H]1O [unformulated TOB, tobramycin]
[1]
  reduction of PAO1 load compared to the no treatment control: 2 log
[2]
  Papp at 1440 min: 0.81 ×10⁻⁶ cm/s
[3]; day five
  macroscopic dermal gape: 88±11%
[3]; day five, after two doses
  macroscopic wound area (of the original wound): 66±13%
[3]; day six
  dermal gape (histology): 5.2±0.8 mm
  macroscopic dermal gape: 77±10%
[3]; day six, after three doses
  macroscopic wound area (of the original wound): 75±18%
  wound length (histology): 7.6±0.9 mm
[3]; day six, histology
  wound reepithelization: 41±8%
